{"source": "patent US12178871B2", "about": "(priority 2018, dated 2024)", "key": {"[1]": {"tested_on": "mouse lung cancer LL2 cell", "assay": "LL2 lung cancer tumor-bearing mouse model", "format": "in vivo", "details": "cisplatin 5 mg/kg, tail vein injection once a week", "description": "The tumor cells in this model grew rapidly, with tumor volume of 2201.9 mm^3±68.01 mm^3 on the 14th day after the inoculation and the experiment was over. […] As explanation, the cisplatin group is more likely to show efficacy in this model with very rapid cell division."}, "[2]": {"details": "in vivo; cited from earlier work"}, "[3]": {"tested_on": "influenza virus subtype A mice-lung adaptive strain FM1", "details": "mouse, in vivo"}}, "data": [{"compound": "N.N.[Cl][Pt][Cl]", "note": "[cisplatin]", "values": [{"measurement": "T/Cb (%)", "setting": "[1]", "result": 28.9, "unit": "%"}, {"measurement": "TV at day 14", "setting": "[1]", "result": "637.79 ± 62.87", "unit": "mm^3"}]}, {"compound": "polyinosinic-polycytidylic acid with poly-L-lysine and carboxymethyl cellulose [PICLC]", "values": [{"measurement": "fever", "setting": "[2]", "result": 100, "unit": "%"}, {"measurement": "hypotension", "setting": "[2]", "result": 50, "unit": "%"}, {"measurement": "myalgia", "setting": "[2]", "result": 50, "unit": "%"}]}, {"compound": "NC(=O)c1ncn([C@@H]2O[C@H](CO)[C@@H](O)[C@H]2O)n1", "note": "[Ribavirin]", "values": [{"measurement": "X^2", "setting": "[3]", "result": 1.64}]}]}
